What all share (type): cell-based
Assay [1] concerns B16F10 (malignant melanoma). Kind of assay: Antiproliferative activity (CCK-8 cell viability), B16F10. The following applies: Mus musculus, 72 h, read-out: Antiproliferative activity in cancerous cells, B16F10 (inhibition of cell growth); for inhibition at 3.3 µM: B16-F10, Compound concentration: 3.3 μM; for inhibition at 10 µM: B16-F10, Compound concentration: 10 μM; for inhibition at 30 µM: B16-F10, Compound concentration: 30 μM. The procedure, abridged:
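Cell growth inhibition was measured in B16F10 malignant melanoma cells with a Cell Counting Kit-8 viability assay. Cells were maintained in DMEM plus 10% fetal bovine serum, seeded at 2,000-5,000 cells/well in 96-well plates, and treated for 72 h at 37° C. Viability was expressed relative to DMSO-treated vehicle control wells.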

Another assay concerns SW480 (colon cancer). Kind of assay: Antiproliferative activity (CCK-8 cell viability), SW480. The following applies: Homo sapiens, 72 h, read-out: Antiproliferative activity in cancerous cells, SW480 (inhibition of cell growth); for inhibition at 3.3 µM: Compound concentration: 3.3 μM; for inhibition at 10 µM: Compound concentration: 10 μM; for inhibition at 30 µM: Compound concentration: 30 μM. The procedure, abridged: (§1)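 Growth inhibition graded in bands from percent viability against DMSO vehicle, read as CCK-8 absorbance at 450 nm. Compound tested at 3.3, 10 or 30 μM for 72 h, 37 °C; media contained 10% FBS: DMEM for HepG2/SW480, MEM for HeLa, F-12K for A549.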

The test system of a further assay is HeLa (cervical cancer). Kind of assay: Antiproliferative activity (CCK-8 cell viability), HeLa. The following applies: Homo sapiens, 72 h, read-out: Antiproliferative activity in cancerous cells, HELA (inhibition of cell growth); for inhibition at 3.3 µM: Compound concentration: 3.3 μM; for inhibition at 10 µM: Compound concentration: 10 μM; for inhibition at 30 µM: Compound concentration: 30 μM. In short, it runs like this: as §1

Assay [2] relates to A431 (epidermoid carcinoma). The assay is described as follows: Antiproliferative activity (CCK-8 cell viability), A431. Particulars: Homo sapiens, 72 h, read-out: Antiproliferative activity in cancerous cells, A431 (inhibition of cell growth); for inhibition at 3.3 µM: A-431, Compound concentration: 3.3 μM; for inhibition at 10 µM: A-431, Compound concentration: 10 μM; for inhibition at 30 µM: A-431, Compound concentration: 30 μM. In short, it runs like this:
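This growth inhibition assay used A431 cells maintained in Dulbecco's modified Eagle's medium plus 10% fetal bovine serum. Cells were seeded in 96-well plates, treated with compound for 72 h at 37° C., and then given 10 μL CCK-8 solution. After a further 4 h, absorbance was read at 450 nm.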

Assay [3] relates to A549 (lung adenocarcinoma). Kind of assay: Antiproliferative activity (CCK-8 cell viability), A549. The following applies: Homo sapiens, 72 h, read-out: Antiproliferative activity in cancerous cells, A549 (inhibition of cell growth); for inhibition at 3.3 µM: Compound concentration: 3.3 μM; for inhibition at 10 µM: Compound concentration: 10 μM; for inhibition at 30 µM: Compound concentration: 30 μM. In short, it runs like this:
as §1

For a further assay, the system named is HepG2 (liver cancer). Kind of assay: Antiproliferative activity (CCK-8 cell viability), HepG2. The following applies: Homo sapiens, 72 h, read-out: Antiproliferative activity in cancerous cells, HepG2 (inhibition of cell growth); for inhibition at 3.3 µM: Compound concentration: 3.3 μM; for inhibition at 10 µM: Compound concentration: 10 μM; for inhibition at 30 µM: Compound concentration: 30 μM. The procedure, abridged: as §1

Assay [4] deals with MDA-MB-231 (breast cancer). Kind of assay: Antiproliferative activity (CCK-8 cell viability), MDA-MB-231. Particulars: Homo sapiens, 72 h, read-out: Antiproliferative activity in cancerous cells, MDA-MB-231 (inhibition of cell growth); for inhibition at 3.3 µM: Compound concentration: 3.3 μM; for inhibition at 10 µM: Compound concentration: 10 μM; for inhibition at 30 µM: Compound concentration: 30 μM. The procedure, abridged:
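Growth inhibition of human MDA-MB-231 breast cancer cells was assessed with a Cell Counting Kit-8. Cells cultured in DMEM plus 10% FBS were seeded at 2,000-5,000 cells/well, treated after attachment, and kept 72 h at 37° C. CCK-8 solution (10 μL) was added for 4 h, and absorbance at 450 nm was compared with DMSO-treated controls.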

Broadly, the inhibition is the relative decrease from the control value, in per cent.

For `CC1=C(CC(=O)O)c2cc(F)ccc2/C1=C/c1ccc(Oc2ccc(F)cc2F)cc1` [E17, (E)-2-(1-(4-(2,4-Difluorophenoxy)benzylidene)-5-fluoro-2-methyl-1H-inden-3-yl)acetic acid], the inhibition at 3.3 µM in assay [1] is at least 50%; with SW480 (colon cancer) it was below 30%; in the assay on HeLa (cervical cancer), 30 to 50%; in assay [2] it was below 30%; in assay [3], below 30%; in the assay on HepG2 (liver cancer), at least 50%. In addition, in assay [4], the inhibition at 3.3 µM lay within 30 to 50%. In addition, the inhibition at 10 µM (in assay [1]; in the assay with SW480 (colon cancer); in the assay with HeLa (cervical cancer); in assay [2]; in assay [3]; with HepG2 (liver cancer)) was at least 50% each time. Moreover, the inhibition at 10 µM in assay [4] is at least 50%. Besides, the inhibition at 30 µM (in assay [1]; with SW480 (colon cancer); in the assay with HeLa (cervical cancer); in assay [2]; in assay [3]; in the assay on HepG2 (liver cancer)) was at least 50% throughout. For the same compound, the inhibition at 30 µM in assay [4] is at least 50%.
For `CC1=C(CC(=O)O)c2cc(F)ccc2/C1=C\c1ccc(COc2ccc(F)cc2)cc1Br` [B74, (Z)-2-(1-(2-Bromo-4-((4-fluorophenoxy)methyl)benzylidene)-5-fluoro-2-methyl-1H-inden-3-yl)acetic acid], the inhibition at 3.3 µM is 30 to 50% in assay [1]; below 30% in the assay with SW480 (colon cancer); below 30% with HeLa (cervical cancer); below 30% in assay [2]; 30 to 50% in assay [3]; at least 50% with HepG2 (liver cancer). The inhibition at 3.3 µM in assay [4] is below 30%. The inhibition at 10 µM in assay [1] was at least 50%; in the assay on SW480 (colon cancer), below 30%; with HeLa (cervical cancer), at least 50%; in assay [2] it was 30 to 50%; in assay [3], 30 to 50%; in the assay on HepG2 (liver cancer), at least 50%. For the same compound, the inhibition at 10 µM in assay [4] lay in the range of 30 to 50%.
For `CC1=C(CC(=O)O)c2cc(Cl)ccc2/C1=C/c1ccc(Oc2ccc(C(C)C)cc2)cc1` [E30, (E)-2-(5-Chloro-1-(4-(4-isopropylphenoxy)benzylidene)-2-methyl-1H-inden-3-yl)acetic acid], the inhibition at 3.3 µM in assay [1] is at least 50%; in the assay on SW480 (colon cancer), at least 50%; in the assay with HeLa (cervical cancer), at least 50%; in assay [2] it was below 30%; in assay [3], below 30%; in the assay on HepG2 (liver cancer), 30 to 50%. Further, the inhibition at 3.3 µM in assay [4] was at least 50%. Further, the inhibition at 10 µM (in assay [1]; in the assay with SW480 (colon cancer); with HeLa (cervical cancer); in assay [2]; in assay [3]; in the assay on HepG2 (liver cancer)) was at least 50% each time. Moreover, the inhibition at 10 µM in assay [4] is at least 50%. The inhibition at 30 µM (in assay [1]; in the assay with SW480 (colon cancer); with HeLa (cervical cancer); in assay [2]; in assay [3]; in the assay with HepG2 (liver cancer)) was at least 50% each time. Besides, in assay [4], the inhibition at 30 µM is at least 50%.

For the origin of these results see US20260184663A1, “INDENE COMPOUNDS, PHARMACEUTICAL COMPOSITIONS THEREOF, AND THEIR THERAPEUTIC APPLICATIONS” (NucMito Pharmaceuticals co. Ltd., priority 2022, published 2026).
